Results taken from patent publication US11208412B2 (DAEGU-GYEONGBUK MEDICAL INNOVATION FOUNDATION, priority 2017, dated 2021).
Read-outs that look alike come from different tables or passages of the source.

Tests used:
Assay in all cases: Kinase selectivity, DiscoverX scanMAX Kinase assay panel (% control)
Type in all cases: binding
[1] = molecular target: T1, kinases of the scanMAX Kinase assay panel (Homo sapiens, UniProt P19525); conditions: PRKR; 1 uM
T1 construct: purchased DiscoverX Co. (contract measurement) scanMAX Kinase assay panel
Procedure, shortened: (§1)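 Compounds were tested at 1 uM (in DMSO) against each panel kinase. % control was calculated as (compound − positive control)/(negative control − positive control)×100, where the positive control gives 0% and DMSO gives 100%. Activity toward a kinase was called at % control <35%.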

[2] = molecular target: T2, kinases of the scanMAX Kinase assay panel (Homo sapiens, UniProt P41240); conditions: CSK; 1 uM
T2 construct: purchased DiscoverX Co. (contract measurement) scanMAX Kinase assay panel
T2 sequence (P41240 whole entry): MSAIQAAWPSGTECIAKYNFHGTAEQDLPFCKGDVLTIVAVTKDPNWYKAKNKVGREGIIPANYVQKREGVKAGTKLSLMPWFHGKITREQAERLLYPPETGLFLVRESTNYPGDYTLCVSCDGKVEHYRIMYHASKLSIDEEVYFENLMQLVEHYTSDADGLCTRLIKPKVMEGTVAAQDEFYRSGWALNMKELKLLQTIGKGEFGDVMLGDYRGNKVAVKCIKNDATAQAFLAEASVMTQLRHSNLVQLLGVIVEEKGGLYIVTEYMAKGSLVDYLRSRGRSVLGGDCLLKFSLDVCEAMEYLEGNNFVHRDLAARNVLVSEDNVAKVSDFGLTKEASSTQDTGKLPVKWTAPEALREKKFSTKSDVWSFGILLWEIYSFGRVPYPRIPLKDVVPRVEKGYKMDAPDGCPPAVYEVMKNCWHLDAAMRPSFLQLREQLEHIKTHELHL
Procedure, shortened: as §1

[3] = molecular target: T3, kinases of the scanMAX Kinase assay panel (Homo sapiens, UniProt P14616); conditions: INSRR; 1 uM
T3 construct: purchased DiscoverX Co. (contract measurement) scanMAX Kinase assay panel
T3 sequence (P14616 27-1297): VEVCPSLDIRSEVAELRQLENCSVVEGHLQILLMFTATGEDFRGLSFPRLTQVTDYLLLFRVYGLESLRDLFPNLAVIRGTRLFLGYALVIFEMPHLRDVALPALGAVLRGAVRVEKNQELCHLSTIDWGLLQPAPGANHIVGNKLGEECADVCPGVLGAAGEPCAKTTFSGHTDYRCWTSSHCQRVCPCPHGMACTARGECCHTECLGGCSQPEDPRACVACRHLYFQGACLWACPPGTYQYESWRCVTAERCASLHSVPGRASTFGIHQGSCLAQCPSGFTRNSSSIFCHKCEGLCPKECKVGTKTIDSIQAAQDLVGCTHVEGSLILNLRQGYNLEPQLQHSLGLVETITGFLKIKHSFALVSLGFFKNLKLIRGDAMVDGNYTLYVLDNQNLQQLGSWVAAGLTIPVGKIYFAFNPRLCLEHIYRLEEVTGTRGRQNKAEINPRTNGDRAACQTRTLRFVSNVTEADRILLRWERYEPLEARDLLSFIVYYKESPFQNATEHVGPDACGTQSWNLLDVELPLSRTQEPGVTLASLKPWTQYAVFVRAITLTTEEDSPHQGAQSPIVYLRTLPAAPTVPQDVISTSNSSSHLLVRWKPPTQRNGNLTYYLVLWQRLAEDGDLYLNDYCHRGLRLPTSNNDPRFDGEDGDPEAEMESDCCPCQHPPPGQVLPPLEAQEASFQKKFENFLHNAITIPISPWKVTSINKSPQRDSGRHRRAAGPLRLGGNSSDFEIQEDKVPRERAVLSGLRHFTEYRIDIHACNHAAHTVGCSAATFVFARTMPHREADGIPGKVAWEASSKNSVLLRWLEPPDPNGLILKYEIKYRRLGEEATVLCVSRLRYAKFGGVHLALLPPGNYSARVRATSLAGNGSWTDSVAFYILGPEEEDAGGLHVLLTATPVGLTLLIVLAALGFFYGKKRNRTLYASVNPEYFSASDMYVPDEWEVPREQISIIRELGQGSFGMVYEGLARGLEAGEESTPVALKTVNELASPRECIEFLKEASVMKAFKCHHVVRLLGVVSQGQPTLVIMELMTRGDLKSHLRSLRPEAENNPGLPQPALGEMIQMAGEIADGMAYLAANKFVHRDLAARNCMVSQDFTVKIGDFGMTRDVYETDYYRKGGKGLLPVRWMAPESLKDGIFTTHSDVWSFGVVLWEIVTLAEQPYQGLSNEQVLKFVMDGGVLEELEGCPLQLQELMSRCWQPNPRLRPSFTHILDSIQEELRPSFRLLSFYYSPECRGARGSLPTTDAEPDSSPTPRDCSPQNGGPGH
Procedure, shortened: as §1

[4] = molecular target: T4, kinases of the scanMAX Kinase assay panel (Homo sapiens, UniProt P36888, D835Y); conditions: FLT3(D835Y); 1 uM
T4 construct: purchased DiscoverX Co. (contract measurement) scanMAX Kinase assay panel
T4 sequence (P36888 27-993 D835Y): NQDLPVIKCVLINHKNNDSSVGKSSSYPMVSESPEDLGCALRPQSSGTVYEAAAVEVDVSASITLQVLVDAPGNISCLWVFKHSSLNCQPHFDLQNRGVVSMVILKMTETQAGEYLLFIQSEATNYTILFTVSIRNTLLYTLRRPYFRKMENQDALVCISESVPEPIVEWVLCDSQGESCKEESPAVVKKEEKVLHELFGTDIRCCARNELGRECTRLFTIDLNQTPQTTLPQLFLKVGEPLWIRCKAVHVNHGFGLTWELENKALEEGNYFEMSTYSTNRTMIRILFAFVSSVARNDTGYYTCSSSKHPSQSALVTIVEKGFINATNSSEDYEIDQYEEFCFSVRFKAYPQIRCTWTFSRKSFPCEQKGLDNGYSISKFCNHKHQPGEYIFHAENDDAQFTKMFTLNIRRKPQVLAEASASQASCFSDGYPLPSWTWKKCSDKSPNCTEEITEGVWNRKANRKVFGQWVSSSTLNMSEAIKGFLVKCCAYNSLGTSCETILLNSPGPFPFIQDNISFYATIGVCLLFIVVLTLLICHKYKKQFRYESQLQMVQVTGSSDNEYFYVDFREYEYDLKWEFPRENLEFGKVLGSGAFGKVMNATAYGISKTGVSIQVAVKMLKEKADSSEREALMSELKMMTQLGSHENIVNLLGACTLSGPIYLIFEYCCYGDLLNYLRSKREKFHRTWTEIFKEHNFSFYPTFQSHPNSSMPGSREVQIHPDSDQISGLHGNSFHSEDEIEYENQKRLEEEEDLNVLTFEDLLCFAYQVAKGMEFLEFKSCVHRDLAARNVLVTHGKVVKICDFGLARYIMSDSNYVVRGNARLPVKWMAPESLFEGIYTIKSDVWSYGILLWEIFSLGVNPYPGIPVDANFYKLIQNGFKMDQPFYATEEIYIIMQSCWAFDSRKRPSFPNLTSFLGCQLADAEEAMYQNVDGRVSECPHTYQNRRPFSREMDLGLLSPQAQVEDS
Procedure, shortened: as §1

[5] = molecular target: T5, kinases of the scanMAX Kinase assay panel (Homo sapiens, UniProt P42681); conditions: kinase TXK; 1 uM in DMSO
T5 construct: purchased DiscoverX Co. (contract measurement) scanMAX Kinase assay panel
T5 sequence (P42681 1-527): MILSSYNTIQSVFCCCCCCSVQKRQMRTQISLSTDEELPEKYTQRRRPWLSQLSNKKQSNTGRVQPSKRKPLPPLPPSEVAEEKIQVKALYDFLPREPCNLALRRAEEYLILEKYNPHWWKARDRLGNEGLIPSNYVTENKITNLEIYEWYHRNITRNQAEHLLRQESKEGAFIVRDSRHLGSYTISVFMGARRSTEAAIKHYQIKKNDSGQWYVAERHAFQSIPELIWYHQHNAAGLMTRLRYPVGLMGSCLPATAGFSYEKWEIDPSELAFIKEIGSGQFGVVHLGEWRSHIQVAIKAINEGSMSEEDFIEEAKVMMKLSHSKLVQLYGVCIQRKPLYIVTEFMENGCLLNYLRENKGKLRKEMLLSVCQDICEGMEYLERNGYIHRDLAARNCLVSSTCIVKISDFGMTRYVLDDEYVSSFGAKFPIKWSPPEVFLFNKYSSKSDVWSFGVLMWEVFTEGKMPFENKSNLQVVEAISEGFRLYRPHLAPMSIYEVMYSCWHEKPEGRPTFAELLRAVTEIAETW
Procedure, shortened: as §1

[6] = molecular target: T6, kinases of the scanMAX Kinase assay panel (Homo sapiens, UniProt O43293); conditions: DAPK3; 1 uM
T6 construct: purchased DiscoverX Co. (contract measurement) scanMAX Kinase assay panel
Procedure, shortened: as §1

[7] = molecular target: T7, kinases of the scanMAX Kinase assay panel (Homo sapiens, UniProt P42336); conditions: PIK3CA; 1 uM
T7 construct: purchased DiscoverX Co. (contract measurement) scanMAX Kinase assay panel
Procedure, shortened: as §1

[8] = molecular target: T8, kinases of the scanMAX Kinase assay panel (Homo sapiens, UniProt P29597); conditions: 1 uM in DMSO
T8 construct: purchased DiscoverX Co. (contract measurement) scanMAX Kinase assay panel
T8 sequence (P29597 whole entry): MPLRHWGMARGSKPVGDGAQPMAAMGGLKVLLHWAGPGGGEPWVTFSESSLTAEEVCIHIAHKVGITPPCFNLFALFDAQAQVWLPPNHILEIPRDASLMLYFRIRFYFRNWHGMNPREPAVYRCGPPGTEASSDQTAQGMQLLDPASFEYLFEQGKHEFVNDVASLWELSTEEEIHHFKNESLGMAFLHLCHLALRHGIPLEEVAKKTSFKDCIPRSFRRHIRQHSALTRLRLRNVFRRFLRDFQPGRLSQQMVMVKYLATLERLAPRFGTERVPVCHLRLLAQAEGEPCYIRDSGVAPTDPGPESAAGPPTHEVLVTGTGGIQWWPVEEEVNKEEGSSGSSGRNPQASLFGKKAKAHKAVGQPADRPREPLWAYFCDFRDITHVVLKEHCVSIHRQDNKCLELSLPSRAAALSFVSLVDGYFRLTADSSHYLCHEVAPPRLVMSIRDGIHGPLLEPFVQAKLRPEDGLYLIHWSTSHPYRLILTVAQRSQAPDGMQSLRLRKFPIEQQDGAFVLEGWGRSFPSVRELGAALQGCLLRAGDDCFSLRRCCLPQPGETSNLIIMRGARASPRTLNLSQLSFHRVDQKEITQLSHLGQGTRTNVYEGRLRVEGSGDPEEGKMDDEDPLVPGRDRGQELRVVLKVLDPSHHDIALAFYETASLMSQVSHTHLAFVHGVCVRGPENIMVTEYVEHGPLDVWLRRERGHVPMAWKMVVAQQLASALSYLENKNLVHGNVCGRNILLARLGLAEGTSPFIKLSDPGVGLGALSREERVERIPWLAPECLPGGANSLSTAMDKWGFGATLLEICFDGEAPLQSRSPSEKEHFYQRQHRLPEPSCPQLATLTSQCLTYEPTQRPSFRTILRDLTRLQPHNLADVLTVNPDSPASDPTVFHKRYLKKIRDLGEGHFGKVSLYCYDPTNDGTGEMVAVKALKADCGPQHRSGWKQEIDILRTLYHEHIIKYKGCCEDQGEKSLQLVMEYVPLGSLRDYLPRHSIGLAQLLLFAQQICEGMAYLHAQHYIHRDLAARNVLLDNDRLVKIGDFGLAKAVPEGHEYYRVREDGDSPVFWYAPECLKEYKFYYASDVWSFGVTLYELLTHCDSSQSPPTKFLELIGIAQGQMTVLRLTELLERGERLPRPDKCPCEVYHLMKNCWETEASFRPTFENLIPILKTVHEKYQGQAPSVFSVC
Procedure, shortened: as §1

[9] = molecular target: T9, kinases of the scanMAX Kinase assay panel (Homo sapiens, UniProt P00533, G719C); conditions: EGFR(G719C); 1 uM
T9 construct: purchased DiscoverX Co. (contract measurement) scanMAX Kinase assay panel
T9 sequence (P00533 25-1210 G719C): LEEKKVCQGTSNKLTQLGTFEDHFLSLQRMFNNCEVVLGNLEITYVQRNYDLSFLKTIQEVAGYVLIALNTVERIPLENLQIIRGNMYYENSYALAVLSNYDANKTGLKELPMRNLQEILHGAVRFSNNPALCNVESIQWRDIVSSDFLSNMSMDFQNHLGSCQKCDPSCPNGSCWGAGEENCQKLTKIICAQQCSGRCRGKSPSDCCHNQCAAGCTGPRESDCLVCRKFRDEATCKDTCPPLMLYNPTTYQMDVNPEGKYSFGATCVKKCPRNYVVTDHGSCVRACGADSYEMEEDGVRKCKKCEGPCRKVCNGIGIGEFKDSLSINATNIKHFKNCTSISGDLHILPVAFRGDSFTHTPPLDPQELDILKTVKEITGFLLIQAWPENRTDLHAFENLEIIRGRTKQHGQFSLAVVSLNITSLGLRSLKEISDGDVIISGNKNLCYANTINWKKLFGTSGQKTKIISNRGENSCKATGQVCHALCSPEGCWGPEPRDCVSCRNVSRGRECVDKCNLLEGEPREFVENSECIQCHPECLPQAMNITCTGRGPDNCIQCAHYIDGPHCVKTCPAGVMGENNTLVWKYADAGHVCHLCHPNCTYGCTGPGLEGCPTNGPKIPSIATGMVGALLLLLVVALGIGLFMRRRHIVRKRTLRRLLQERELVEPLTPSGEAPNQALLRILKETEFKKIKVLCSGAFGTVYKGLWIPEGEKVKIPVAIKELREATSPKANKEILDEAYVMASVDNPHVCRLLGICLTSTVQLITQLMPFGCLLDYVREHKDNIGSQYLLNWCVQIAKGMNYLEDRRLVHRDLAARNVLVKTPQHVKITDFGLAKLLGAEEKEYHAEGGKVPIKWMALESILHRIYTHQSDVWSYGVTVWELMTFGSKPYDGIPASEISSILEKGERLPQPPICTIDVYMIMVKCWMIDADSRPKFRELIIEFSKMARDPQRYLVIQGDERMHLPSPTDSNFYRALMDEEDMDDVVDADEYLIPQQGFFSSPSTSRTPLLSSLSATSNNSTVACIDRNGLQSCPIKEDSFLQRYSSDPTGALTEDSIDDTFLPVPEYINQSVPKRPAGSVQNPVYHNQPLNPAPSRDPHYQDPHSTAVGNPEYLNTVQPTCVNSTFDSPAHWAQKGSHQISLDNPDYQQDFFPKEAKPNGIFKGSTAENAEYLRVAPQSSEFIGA
Procedure, shortened: as §1

[10] = molecular target: T10, kinases of the scanMAX Kinase assay panel (Homo sapiens, UniProt O60331); conditions: PIP5K1C; 1 uM
T10 construct: purchased DiscoverX Co. (contract measurement) scanMAX Kinase assay panel
T10 sequence (O60331 whole entry): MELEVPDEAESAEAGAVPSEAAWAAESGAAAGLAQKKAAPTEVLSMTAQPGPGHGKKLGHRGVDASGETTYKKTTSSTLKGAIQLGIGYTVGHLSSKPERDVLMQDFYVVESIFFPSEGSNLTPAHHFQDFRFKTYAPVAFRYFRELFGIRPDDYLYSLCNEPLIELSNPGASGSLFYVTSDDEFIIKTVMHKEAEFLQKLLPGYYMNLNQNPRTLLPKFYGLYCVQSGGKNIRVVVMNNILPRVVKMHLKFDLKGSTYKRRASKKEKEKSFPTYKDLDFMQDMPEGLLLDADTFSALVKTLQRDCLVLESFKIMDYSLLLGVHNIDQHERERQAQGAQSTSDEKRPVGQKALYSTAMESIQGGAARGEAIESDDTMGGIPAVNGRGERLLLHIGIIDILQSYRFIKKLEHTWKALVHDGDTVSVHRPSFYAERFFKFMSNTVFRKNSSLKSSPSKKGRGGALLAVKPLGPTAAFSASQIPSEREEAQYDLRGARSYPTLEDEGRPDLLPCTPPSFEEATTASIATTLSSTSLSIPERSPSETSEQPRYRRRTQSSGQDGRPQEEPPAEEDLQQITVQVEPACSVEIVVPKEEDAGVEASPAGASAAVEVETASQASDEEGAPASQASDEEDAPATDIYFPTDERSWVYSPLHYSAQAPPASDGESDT
Procedure, shortened: as §1

[11] = molecular target: T11, kinases of the scanMAX Kinase assay panel (Homo sapiens, UniProt P10721, A829P); conditions: KIT(A829P); 1 uM
T11 construct: purchased DiscoverX Co. (contract measurement) scanMAX Kinase assay panel
Procedure, shortened: as §1

[12] = kinase TYK2(JH1domain-catalytic), read-out: % control, TYK2(JH1domain-catalytic)
[13] = kinase TYK2(JH2domain-pseudokinase), read-out: % control, TYK2(JH2domain-pseudokinase)

`CC1(Nc2nc(Nc3cnn([C@H]4CCN(C5COC5)C[C@@H]4F)c3Cl)nc3[nH]cc(C#N)c23)CC1` [Example 52, 2-((5-chloro-1-((3S,4S)-3-fluoro-1-(oxetane-3-yl)piperidine-4-yl)-1H-pyrazole-4-yl)amino)((1-methylcyclopropyl)amino)-7H-pyrrolo[2,3-d]pyrimidine-5-carbonitrile] was tested. Which remaining binding at 1 µM [1] did it give?
Its remaining binding at 1 µM is 42%.

What about the remaining binding at 1 µM [2] of the same compound?
Its remaining binding at 1 µM is 33%.

What about the remaining binding at 1 µM [3] of the same compound?
The remaining binding at 1 µM was 6.5%.

And the remaining binding at 1 µM [4]?
Its remaining binding at 1 µM is 0%.

What about the remaining binding at 1 µM [5] of the same compound?
The remaining binding at 1 µM was 40%.

What about the remaining binding at 1 µM [6] of the same compound?
Its remaining binding at 1 µM is 8.4%.

And the remaining binding at 1 µM [7]?
Its remaining binding at 1 µM is 60%.

And the remaining binding at 1 µM [8, 12]?
Its remaining binding at 1 µM is 0%.

And the remaining binding at 1 µM [8, 13]?
Its remaining binding at 1 µM is 7.2%.

And the remaining binding at 1 µM [9]?
The remaining binding at 1 µM was 71%.

And the remaining binding at 1 µM [10]?
Its remaining binding at 1 µM is 0%.

And the remaining binding at 1 µM [11]?
The remaining binding at 1 µM was 11%.

With `CNc1nc(Nc2ccc(C(=O)N3CCOCC3)cc2OC)nc2[nH]cc(C#N)c12` [Example 1, 2-((2-methoxy-4-(morpholine-4-carbonyl)phenyl)amino)-4-(methylamino)-7H-pyrrolo[2,3-d]pyrimidine-5-carbonitrile] as the compound, how does the remaining binding at 1 µM [1] read?
Its remaining binding at 1 µM is 95%.

And the remaining binding at 1 µM [2]?
The remaining binding at 1 µM was 99%.

What about the remaining binding at 1 µM [3] of the same compound?
The remaining binding at 1 µM was 61%.

And the remaining binding at 1 µM [4]?
The remaining binding at 1 µM was 82%.

And the remaining binding at 1 µM [5]?
Its remaining binding at 1 µM is 100%.

And the remaining binding at 1 µM [6]?
Its remaining binding at 1 µM is 12%.

What about the remaining binding at 1 µM [7] of the same compound?
The remaining binding at 1 µM was 87%.

And the remaining binding at 1 µM [8, 12]?
Its remaining binding at 1 µM is 80%.

What about the remaining binding at 1 µM [8, 13] of the same compound?
The remaining binding at 1 µM was 66%.

What about the remaining binding at 1 µM [9] of the same compound?
Its remaining binding at 1 µM is 82%.

What about the remaining binding at 1 µM [10] of the same compound?
The remaining binding at 1 µM was 1%.

What about the remaining binding at 1 µM [11] of the same compound?
The remaining binding at 1 µM was 60%.

With `CCNc1nc(Nc2ccc(C(=O)N3CCC(N4CCOCC4)CC3)cc2OC)nc2[nH]cc(C(F)(F)F)c12` [Example 104, (4-((4-(ethylamino)-5-(trifluoromethyl)-7H-pyrrolo[2,3-d]pyrimidine-2-yl)amino)-3-methoxyphenyl)(4-morpholinopiperidine-1-yl)methanone] as the compound, how does the remaining binding at 1 µM [1] read?
Its remaining binding at 1 µM is 85%.

And the remaining binding at 1 µM [2]?
The remaining binding at 1 µM was 85%.

What about the remaining binding at 1 µM [3] of the same compound?
The remaining binding at 1 µM was 3.2%.

What about the remaining binding at 1 µM [4] of the same compound?
The remaining binding at 1 µM was 14%.

What about the remaining binding at 1 µM [5] of the same compound?
The remaining binding at 1 µM was 100%.

And the remaining binding at 1 µM [6]?
Its remaining binding at 1 µM is 56%.

What about the remaining binding at 1 µM [7] of the same compound?
The remaining binding at 1 µM was 99%.

And the remaining binding at 1 µM [8, 12]?
Its remaining binding at 1 µM is 100%.

And the remaining binding at 1 µM [8, 13]?
The remaining binding at 1 µM was 100%.

What about the remaining binding at 1 µM [9] of the same compound?
The remaining binding at 1 µM was 96%.

What about the remaining binding at 1 µM [10] of the same compound?
The remaining binding at 1 µM was 100%.

And the remaining binding at 1 µM [11]?
Its remaining binding at 1 µM is 100%.
